The values below come from ChEMBL document CHEMBL1156556, “Knowledge-based design of 7-azaindoles as selective B-Raf inhibitors” (Bioorg Med Chem Lett, 2008).

The source made the active and inactive calls. No cut-off for these calls is given here.

In experiment [1] the target is Serine/threonine-protein kinase B-raf (Homo sapiens, UniProt P15056). Briefly: Inhibition of B-Raf by fluorescence anisotropy binding assay.
The next experiment concerns the target Cytochrome P450 2D6 (Homo sapiens, UniProt P10635). In words: Inhibition of CYP2D6. The format is ADME.
The next experiment has as its target Cytochrome P450 2C9 (Homo sapiens, UniProt P11712). Briefly: Inhibition of CYP2C9. The format is ADME.
Experiment [2] addresses T1, Tyrosine-protein kinase ZAP-70 (Homo sapiens) (UniProt P43403).
T1 sequence (whole entry): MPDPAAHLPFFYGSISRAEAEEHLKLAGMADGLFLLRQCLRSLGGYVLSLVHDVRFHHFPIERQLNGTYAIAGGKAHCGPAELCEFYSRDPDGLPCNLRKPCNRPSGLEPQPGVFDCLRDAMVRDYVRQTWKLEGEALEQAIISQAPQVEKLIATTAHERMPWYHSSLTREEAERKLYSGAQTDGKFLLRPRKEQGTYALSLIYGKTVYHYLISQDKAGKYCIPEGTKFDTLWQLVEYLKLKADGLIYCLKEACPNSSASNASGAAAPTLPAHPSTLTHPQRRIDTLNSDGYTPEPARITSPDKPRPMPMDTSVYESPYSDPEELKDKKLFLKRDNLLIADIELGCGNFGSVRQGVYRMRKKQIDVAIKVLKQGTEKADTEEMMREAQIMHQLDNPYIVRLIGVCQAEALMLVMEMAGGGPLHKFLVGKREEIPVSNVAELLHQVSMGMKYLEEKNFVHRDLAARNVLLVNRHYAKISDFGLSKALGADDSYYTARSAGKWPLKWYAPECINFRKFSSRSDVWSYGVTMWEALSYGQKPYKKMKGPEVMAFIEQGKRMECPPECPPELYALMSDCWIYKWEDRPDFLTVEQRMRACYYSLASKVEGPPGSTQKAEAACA
Briefly: Inhibition of ZAP70 at 30 uM.

For experiment [3], the target named is Glycogen synthase kinase-3 beta (Homo sapiens) (UniProt P49841). Briefly: Inhibition of GSK3b at 30 uM.
Experiment [4] has as its target T2, Serine/threonine-protein kinase Sgk1 (Homo sapiens) (UniProt O00141).
T2 sequence (whole entry): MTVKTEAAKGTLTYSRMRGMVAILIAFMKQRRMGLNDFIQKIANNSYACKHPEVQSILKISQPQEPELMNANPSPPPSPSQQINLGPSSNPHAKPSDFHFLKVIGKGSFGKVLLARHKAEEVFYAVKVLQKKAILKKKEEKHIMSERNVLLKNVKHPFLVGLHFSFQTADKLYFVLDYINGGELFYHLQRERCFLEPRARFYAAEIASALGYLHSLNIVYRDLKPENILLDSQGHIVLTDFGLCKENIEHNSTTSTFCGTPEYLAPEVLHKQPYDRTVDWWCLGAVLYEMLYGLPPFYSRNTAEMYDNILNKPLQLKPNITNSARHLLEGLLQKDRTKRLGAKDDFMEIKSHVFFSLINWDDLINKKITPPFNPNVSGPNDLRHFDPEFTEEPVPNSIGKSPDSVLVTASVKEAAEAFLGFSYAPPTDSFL
Briefly: Inhibition of SGK1 at 30 uM.

The target of experiment [5] is Cyclin-dependent kinase 2 (Homo sapiens) (UniProt P24941). In words: Inhibition of CDK2 at 30 uM.
For experiment [6], the target named is Mitogen-activated protein kinase 1 (Homo sapiens) (UniProt P28482). Briefly: Inhibition of ERK2 at 30 uM.
Experiment [7] has as its target Insulin-like growth factor 1 receptor (Homo sapiens) (UniProt P08069). In words: Inhibition of IGF1R at 30 uM.
Experiment [8] is described as follows: Selectivity for B-Raf over VEGFR2.
The target of experiment [9] is Tyrosine-protein kinase SYK (Homo sapiens) (UniProt P43405). Briefly: Inhibition of SYK at 30 uM.
Experiment [10] in a line: Selectivity for B-Raf over c-Met.
Experiment [11] has as its target Tyrosine-protein kinase BTK (Homo sapiens) (UniProt Q06187). In words: Inhibition of BTK at 30 uM.
Experiment [12] addresses RAC-alpha serine/threonine-protein kinase (Homo sapiens) (UniProt P31749). Briefly: Inhibition of AKT1 at 30 uM.
The target of experiment [13] is T3, Inhibitor of nuclear factor kappa-B kinase subunit beta (Homo sapiens) (UniProt O14920).
T3 sequence (whole entry): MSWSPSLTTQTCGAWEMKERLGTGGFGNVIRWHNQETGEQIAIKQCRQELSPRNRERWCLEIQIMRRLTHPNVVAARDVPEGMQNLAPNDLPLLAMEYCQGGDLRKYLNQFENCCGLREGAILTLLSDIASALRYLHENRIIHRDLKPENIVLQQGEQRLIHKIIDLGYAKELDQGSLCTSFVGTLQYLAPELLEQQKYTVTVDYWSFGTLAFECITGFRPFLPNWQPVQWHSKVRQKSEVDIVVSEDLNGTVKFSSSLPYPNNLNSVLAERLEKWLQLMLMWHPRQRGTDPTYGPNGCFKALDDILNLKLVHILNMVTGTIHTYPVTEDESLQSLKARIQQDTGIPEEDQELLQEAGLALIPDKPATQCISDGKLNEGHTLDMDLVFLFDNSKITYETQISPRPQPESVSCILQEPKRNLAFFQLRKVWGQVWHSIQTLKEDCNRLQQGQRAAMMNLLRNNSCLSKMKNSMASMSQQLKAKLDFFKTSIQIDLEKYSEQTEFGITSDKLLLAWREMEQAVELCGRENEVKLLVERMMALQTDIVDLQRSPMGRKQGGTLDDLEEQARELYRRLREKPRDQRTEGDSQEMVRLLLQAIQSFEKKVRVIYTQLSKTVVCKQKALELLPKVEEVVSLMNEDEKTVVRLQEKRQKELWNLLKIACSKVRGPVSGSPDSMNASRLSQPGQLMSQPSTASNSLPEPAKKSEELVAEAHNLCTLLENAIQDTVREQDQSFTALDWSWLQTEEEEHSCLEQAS
In words: Inhibition of IKK2 at 30 uM.

For experiment [14], the target named is Receptor tyrosine-protein kinase erbB-4 (Homo sapiens) (UniProt Q15303). In words: Inhibition of ERBB4 at 30 uM.

The term IC50 denotes the concentration needed to halve the response being measured. A lower IC50 goes with greater potency in that assay.

Serine/threonine-protein kinase B-raf, sequence (P15056 whole entry): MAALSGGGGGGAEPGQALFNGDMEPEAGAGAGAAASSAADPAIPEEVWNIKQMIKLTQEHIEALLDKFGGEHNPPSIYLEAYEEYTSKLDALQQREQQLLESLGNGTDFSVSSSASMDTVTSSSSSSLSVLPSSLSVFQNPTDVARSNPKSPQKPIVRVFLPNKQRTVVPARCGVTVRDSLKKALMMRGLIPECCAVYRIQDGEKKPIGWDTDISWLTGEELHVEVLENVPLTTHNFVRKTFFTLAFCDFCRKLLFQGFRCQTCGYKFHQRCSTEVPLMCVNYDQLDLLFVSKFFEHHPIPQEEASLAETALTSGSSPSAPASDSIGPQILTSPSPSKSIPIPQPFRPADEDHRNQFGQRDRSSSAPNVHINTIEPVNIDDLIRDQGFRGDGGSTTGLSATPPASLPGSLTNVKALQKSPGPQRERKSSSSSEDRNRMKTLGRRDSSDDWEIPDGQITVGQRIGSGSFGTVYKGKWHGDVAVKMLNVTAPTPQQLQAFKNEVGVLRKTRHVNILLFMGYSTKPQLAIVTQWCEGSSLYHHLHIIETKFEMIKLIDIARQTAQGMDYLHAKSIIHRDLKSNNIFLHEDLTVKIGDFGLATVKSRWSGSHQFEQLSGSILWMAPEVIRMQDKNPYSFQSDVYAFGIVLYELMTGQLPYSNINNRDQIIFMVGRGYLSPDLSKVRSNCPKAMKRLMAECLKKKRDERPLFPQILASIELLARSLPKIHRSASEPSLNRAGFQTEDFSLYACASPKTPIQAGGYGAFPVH
Cytochrome P450 2D6, sequence (P10635 whole entry): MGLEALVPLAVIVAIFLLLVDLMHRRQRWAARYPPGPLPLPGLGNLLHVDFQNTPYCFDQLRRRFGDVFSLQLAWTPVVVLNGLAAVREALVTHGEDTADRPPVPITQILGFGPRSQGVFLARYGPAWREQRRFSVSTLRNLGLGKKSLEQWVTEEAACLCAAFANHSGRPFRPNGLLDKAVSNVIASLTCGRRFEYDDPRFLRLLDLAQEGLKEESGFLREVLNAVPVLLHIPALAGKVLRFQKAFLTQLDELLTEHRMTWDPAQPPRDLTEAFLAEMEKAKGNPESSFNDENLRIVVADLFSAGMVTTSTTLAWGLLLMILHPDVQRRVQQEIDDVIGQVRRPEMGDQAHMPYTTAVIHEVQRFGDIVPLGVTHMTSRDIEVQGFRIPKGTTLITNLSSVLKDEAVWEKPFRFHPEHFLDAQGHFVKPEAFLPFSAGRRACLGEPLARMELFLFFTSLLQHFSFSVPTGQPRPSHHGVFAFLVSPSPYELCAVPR
Cytochrome P450 2C9, sequence (P11712 whole entry): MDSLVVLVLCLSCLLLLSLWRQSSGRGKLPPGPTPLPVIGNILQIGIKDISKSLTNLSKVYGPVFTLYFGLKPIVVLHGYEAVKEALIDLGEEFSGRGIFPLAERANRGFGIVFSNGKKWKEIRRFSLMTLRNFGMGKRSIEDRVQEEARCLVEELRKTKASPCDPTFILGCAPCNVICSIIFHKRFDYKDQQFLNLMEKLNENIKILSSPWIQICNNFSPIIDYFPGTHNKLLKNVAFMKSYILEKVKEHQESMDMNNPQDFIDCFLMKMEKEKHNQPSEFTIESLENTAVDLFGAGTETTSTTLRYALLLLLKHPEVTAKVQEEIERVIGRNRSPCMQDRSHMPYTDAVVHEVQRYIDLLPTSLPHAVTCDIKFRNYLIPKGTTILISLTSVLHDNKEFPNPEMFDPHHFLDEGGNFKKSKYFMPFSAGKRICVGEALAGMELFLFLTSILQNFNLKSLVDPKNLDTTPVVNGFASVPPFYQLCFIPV
Receptor tyrosine-protein kinase erbB-4 (Homo sapiens), sequence (Q15303 whole entry): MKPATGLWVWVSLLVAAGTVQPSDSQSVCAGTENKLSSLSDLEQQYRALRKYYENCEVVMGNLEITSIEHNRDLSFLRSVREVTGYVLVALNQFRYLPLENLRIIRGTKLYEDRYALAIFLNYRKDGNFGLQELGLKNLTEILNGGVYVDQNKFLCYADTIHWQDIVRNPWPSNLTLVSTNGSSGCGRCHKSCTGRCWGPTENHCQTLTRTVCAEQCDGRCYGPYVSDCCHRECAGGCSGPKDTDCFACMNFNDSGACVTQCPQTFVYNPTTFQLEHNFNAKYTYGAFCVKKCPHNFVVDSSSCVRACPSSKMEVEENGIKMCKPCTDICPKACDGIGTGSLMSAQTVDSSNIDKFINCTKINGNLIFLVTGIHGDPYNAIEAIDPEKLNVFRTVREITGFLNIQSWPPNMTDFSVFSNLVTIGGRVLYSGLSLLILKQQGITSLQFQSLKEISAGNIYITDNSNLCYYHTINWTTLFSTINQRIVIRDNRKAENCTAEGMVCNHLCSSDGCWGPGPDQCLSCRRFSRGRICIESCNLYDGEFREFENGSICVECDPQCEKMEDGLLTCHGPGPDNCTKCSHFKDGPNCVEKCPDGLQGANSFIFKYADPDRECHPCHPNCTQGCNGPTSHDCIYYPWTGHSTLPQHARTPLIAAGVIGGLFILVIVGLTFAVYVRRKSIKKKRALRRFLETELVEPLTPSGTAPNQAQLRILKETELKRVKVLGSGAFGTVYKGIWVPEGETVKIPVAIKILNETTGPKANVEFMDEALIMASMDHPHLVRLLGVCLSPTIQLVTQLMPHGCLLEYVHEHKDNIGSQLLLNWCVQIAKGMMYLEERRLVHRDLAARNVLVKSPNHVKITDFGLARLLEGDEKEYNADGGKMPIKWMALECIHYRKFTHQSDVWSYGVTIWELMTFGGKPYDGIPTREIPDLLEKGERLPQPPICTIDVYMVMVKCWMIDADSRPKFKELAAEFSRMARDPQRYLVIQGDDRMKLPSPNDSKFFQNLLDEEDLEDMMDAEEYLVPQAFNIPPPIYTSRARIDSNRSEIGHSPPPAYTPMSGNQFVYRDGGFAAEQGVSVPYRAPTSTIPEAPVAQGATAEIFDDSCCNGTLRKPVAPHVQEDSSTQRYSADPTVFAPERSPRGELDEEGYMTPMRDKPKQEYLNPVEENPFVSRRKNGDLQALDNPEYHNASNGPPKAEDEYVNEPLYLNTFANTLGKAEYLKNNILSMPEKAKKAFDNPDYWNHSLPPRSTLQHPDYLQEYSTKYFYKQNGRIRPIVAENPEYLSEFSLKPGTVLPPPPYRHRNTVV
Mitogen-activated protein kinase 1 (Homo sapiens), sequence (P28482 whole entry): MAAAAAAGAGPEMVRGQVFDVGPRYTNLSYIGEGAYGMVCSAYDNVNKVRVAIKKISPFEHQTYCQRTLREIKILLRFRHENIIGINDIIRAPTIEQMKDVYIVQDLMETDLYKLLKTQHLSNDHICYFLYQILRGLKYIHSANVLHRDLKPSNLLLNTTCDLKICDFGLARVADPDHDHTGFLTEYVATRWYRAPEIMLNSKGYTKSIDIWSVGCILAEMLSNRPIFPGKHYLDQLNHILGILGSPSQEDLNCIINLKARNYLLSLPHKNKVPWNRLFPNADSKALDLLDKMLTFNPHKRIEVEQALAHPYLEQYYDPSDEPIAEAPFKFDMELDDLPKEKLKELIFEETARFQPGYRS
Tyrosine-protein kinase BTK (Homo sapiens), sequence (Q06187 whole entry): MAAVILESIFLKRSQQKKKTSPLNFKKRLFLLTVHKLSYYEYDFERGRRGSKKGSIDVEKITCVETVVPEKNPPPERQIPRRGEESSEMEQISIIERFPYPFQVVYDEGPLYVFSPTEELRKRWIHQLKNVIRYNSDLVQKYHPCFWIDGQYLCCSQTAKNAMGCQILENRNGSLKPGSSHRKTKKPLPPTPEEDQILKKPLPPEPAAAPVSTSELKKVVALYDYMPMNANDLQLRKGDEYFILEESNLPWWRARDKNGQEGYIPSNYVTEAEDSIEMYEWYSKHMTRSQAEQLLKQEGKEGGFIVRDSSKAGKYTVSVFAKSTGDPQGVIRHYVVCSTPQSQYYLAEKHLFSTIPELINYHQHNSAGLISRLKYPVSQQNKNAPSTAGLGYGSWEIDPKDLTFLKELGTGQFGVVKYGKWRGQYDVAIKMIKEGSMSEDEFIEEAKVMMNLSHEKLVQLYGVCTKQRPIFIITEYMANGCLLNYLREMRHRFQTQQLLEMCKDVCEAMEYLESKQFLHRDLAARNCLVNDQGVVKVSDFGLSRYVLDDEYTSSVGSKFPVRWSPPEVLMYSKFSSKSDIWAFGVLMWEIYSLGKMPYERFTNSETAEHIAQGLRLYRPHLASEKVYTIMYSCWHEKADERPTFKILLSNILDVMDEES
RAC-alpha serine/threonine-protein kinase (Homo sapiens), sequence (P31749 whole entry): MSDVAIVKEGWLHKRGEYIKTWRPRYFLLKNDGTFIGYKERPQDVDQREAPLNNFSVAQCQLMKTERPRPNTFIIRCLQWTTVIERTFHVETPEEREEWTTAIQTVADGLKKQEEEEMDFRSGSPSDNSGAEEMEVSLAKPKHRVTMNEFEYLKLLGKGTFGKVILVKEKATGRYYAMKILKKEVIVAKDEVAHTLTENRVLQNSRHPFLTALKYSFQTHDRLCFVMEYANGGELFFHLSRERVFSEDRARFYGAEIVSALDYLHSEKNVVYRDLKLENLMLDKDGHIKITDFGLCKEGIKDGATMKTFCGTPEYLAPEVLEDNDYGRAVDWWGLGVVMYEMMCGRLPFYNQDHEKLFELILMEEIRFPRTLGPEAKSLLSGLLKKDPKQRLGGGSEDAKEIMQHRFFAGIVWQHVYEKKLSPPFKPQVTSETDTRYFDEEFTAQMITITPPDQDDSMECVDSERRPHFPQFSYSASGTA
Glycogen synthase kinase-3 beta (Homo sapiens), sequence (P49841 whole entry, looked up): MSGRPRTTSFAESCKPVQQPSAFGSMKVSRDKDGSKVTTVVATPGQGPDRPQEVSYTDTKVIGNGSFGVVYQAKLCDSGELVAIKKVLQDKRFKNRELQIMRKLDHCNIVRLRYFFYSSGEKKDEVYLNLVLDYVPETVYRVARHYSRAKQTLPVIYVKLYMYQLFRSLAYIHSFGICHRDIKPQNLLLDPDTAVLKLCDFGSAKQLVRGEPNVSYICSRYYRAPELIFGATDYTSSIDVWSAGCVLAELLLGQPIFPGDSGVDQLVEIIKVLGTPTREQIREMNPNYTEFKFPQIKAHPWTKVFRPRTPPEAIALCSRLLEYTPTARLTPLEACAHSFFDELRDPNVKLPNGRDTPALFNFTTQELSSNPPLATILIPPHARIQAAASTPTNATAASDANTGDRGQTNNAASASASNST

`CCn1cc(-c2ccnc3[nH]ccc23)c(-c2cccc(NC(=O)Nc3cccc(OC)c3)c2)n1`: the IC50 was 0.0021 µM in [1], 0.2 µM against Cytochrome P450 2D6 and 0.316 µM against Cytochrome P450 2C9.
Consider `CCn1cc(-c2ccnc3[nH]cc(Br)c23)c(-c2cccc(NC(=O)Nc3ccccc3)c2)n1`, for which the IC50 in experiment [1] is 0.0794 µM.
Same read-out and setting: to `CCn1cc(-c2ccnc3[nH]ccc23)c(-c2cccc(NC(=O)Nc3cc(C(F)(F)F)ccc3F)c2)n1` belongs 0.0039 µM.
Same read-out and setting: to `CCn1cc(-c2ccnc3[nH]ccc23)c(-c2cccc(NC(=O)Nc3c(F)cccc3F)c2)n1` belongs 0.0257 µM; to `CCn1cc(-c2ccnc3[nH]ccc23)c(-c2cccc(NC(=O)Nc3ccc(Cl)c(C(F)(F)F)c3)c2)n1`, 0.0054 µM.
On to `CCn1cc(-c2ccnc3[nH]ccc23)c(-c2cccc(NC(=O)Nc3ccc(C(F)(F)F)cc3)c2)n1`, for which the outcome in experiment [2], in experiment [3], in experiment [4], in experiment [5], in experiment [6] and in [7] was inactive. Moreover, the result in [9], in experiment [11], in experiment [12], in experiment [13] and in experiment [14] was inactive. In addition, the fold change (FC) in [8] and in experiment [10] was 100 in each case. Also, the figures for the IC50 on Cytochrome P450 2D6 and on Cytochrome P450 2C9 were 5.01 µM and 1.26 µM, respectively.
Regarding `CCOC(=O)c1cc2c(-c3cn(CC)nc3-c3cccc(NC(=O)Nc4ccccc4)c3)ccnc2[nH]1`, in experiment [1], the IC50 turned out to be 0.0339 µM.
As to `CCn1cc(-c2ccnc3[nH]ccc23)c(-c2cccc(NC(=O)NC3CCCCC3)c2)n1`, the IC50 in experiment [1] is 0.0417 µM.
Still for that read-out and setting: with `CCn1cc(-c2ccnc3[nH]c(C(=O)O)cc23)c(-c2cccc(NC(=O)Nc3ccccc3)c2)n1` the figure was 0.0457 µM.
